The structures appear in SMILES notation.

The EC50 is the concentration at which the effect is half-maximal. High values mean weaker potency, low ones greater potency.

The assay deals with T1, GLP-1 Receptor (Homo sapiens, UniProt P43220).
T1 construct: HD Biosciences / HDB (Method 3); host or cells: CHO-K1 (Methods 1, 2) or HEK293/CRE-Luc (Method 3)
T1 sequence (P43220 24-463): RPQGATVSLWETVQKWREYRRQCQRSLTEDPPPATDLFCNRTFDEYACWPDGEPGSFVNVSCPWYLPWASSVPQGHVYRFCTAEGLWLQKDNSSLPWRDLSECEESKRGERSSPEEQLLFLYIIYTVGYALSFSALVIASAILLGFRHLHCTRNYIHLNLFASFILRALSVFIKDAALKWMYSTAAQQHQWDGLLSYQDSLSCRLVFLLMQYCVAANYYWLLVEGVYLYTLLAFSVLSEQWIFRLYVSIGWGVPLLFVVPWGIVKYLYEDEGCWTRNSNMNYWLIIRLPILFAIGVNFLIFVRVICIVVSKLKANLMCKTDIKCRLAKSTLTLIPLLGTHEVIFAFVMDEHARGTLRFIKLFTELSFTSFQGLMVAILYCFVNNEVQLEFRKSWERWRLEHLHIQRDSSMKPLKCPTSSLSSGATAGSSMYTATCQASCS
The experiment in a line: GLP-1R agonist cAMP stimulation assay. The format is cell-based. As to conditions: cells stably expressing the GLP-1 Receptor (method not given). The method, then: Activation of GLP-1 receptor is known to stimulate cyclic AMP (cAMP) production in cells which indicates primary coupling to the Gas subunit of the G protein heterotrimeric complex.
Method 1: To optimize functional activity directed toward Gas coupling, a CHO-K1 cell line developed by DiscoverX stably expressing the GLP-1 Receptor is used. Cells expressing GLP-1 receptor are plated in a 384-well microtiter plates and incubated overnight at 37° C. with 5% CO2 to allow the cells to attach and grow. Media is then aspirated from the cells and replaced with 15 μL Hanks Balanced Salt Solution (HBSS)/5 mM Hepes:0.5 mM IBMX 0.1% BSA (pH 7.4) [Stimulation Buffer]. […] previously generated compound sample stocks at 4× final concentration in Stimulation Buffer are then added to the cells and allowed to incubate at 37° C. for 30 or 60 minutes.
After incubation the assay signal is generated using a europium chelate-labeled cAMP tracer which competes with cAMP for binding sites on a cAMP-specific monoclonal antibody labeled with ULight™ dye. When antibodies are bound to the Eu-labeled cAMP tracer FRET transfer between the Eu chelate and ULight™ labeled antibodies is detected. Free cAMP produced from stimulated cells competes with the Eu-cAMP tracer for binding to the ULight™-mAb causing a decrease in the TR-FRET signal in a dose dependent manner.
The method for detection of cAMP using the Eu-chelate technology requires incubation with Eu-cAMP tracer solution+ULight™-anti-cAMP solution for one hour at room temperature. Microplates are read following signal generation with a PerkinElmer Envision instrument utilizing TR-FRET signal detection. Percentage activity is calculated using the following formula: […]
Method 2: To optimize functional activity directed toward Gas coupling, a CHO-K1 cell line developed by DiscoverX stably expressing the GLP-1 Receptor is used. Cells expressing GLP-1 receptor are plated in a 384-well microtiter plates and incubated overnight at 37° C. with 5% CO2 to allow the cells to attach and grow. Media is then aspirated from the cells and replaced with 15 μL 2:1 Hanks Balanced Salt Solution (HBSS)/10 mM Hepes: cAMP XS+Ab reagent. Five microliters (5 μL) of previously generated compound sample stocks at 4× final concentration in assay buffer are then added to the cells and allowed to incubate at 37° C. for 30 or 60 minutes.
After incubation the assay signal is generated using enzyme fragment complementation (EFC). In EFC, the enzyme B-galactosidase is split into two complementary portions (EA and ED). The fragment ED is fused to cAMP and in the assay format competes with endogenous cAMP for binding to a cAMP specific antibody. Activated B-Gal is formed when exogenous EA fragment binds to free ED-cAMP (not bound to cAMP specific antibody). Activated enzyme levels are detected through conversion of B-gal chemiluminescent substrate which generates a detectable luminescence signal and read on standard microtiter plate.
The methodology for detection of cAMP using EFC requires incubation with 20 μL of cAMP XS+ED/CL lysis cocktail for one hour followed by incubation with 20 μL cAMP XS+EA reagent for three hours at room temperature. Microplates are read following signal generation with a PerkinElmer Envision instrument utilizing chemiluminescent signal detection. Compound activity is analyzed using CBIS data analysis suite (ChemInnovation, CA). Percentage activity is calculated using the following formula: […]
Method 3: Activation of GLP-1 receptor is known to stimulate cyclic AMP (cAMP) production in cells which indicates primary coupling to the Gas subunit of the G protein heterotrimeric complex.
To optimize functional activity directed toward Gas coupling, a HEK293/CRE-Luc cell line developed by HDB stably expressing the GLP-1 Receptor was used. […]
`CCP(=O)(CC)c1ccc(-n2ccn(-c3c(-c4cc(C)c(F)c(C)c4)nn4c3C(C)N(C(=O)c3nc5cc(C6CCOCC6)ccn5c3C3(c5noc(=O)[nH]5)CC3)CC4)c2=O)cc1NC` (stereo not shown) [Compound 29]: the midpoint of the response, the EC50, lay at 29000 pM.

As to `CNc1cc(-n2ccn(-c3c4c(nn3-c3cc(C)c(F)c(C)c3)CCN(C(=O)c3cc5cc(C6CCOCC6)ccn5c3C3(c5noc(=O)[nH]5)CC3)[C@H]4C)c2=O)ccc1P(C)(C)=O` [Compound 3], the response was half-maximal at 70 pM (EC50).

The compound `CCP(=O)(CC)c1ccc(-n2ccn(-c3c(-c4cc(C)c(F)c(C)c4)nn4c3C(C)N(C(=O)c3sc5cc(C6CCOCC6)ccc5c3C3(c5noc(=O)[nH]5)CC3)CC4)c2=O)cc1NC` (stereo not shown) [Compound 30] came in with an EC50 of 320 pM.

As for `CCP(=O)(CC)c1ccc(-n2ccn(-c3c4c(nn3-c3cc(C)c(F)c(C)c3)CCN(C(=O)c3cc5cc(C6CCOCC6)cnn5c3C3(c5noc(=O)[nH]5)CC3)[C@H]4C)c2=O)cc1NC` [Compound 26, 3-(1-{6-[(4S)-3-{3-[4-(diethylphosphoryl)-3-(methylamino)phenyl]-2-oxo-2,3-dihydro-1H-imidazol-1-yl}-2-(4-fluoro-3,5-dimethylphenyl)-4-methyl-2H,4H,5H,6H,7H-pyrazolo[4,3-c]pyridine-5-carbonyl]-3-(oxan-4-yl)pyrrolo[1,2-b]pyridazin-7-yl}cyclopropyl)-4,5-dihydro-1,2,4-oxadiazol-5-one], the EC50 turned out to be 14 pM.

Compound `CCP(=O)(CC)c1ccc(-n2ccn(-c3c4c(nn3-c3cc(C)c(F)c(C)c3)CCN(C(=O)c3[nH]c5cc(C6CCOCC6)ccc5c3C3(c5noc(=O)[nH]5)CC3)[C@H]4C)c2=O)cc1NC` [Compound 28, 3-(1-{2-[(4S)-3-{3-[4-(diethylphosphoryl)-3-(methylamino)phenyl]-2-oxo-2,3-dihydro-1H-imidazol-1-yl}-2-(4-fluoro-3,5-dimethylphenyl)-4-methyl-2H,4H,5H,6H,7H-pyrazolo[4,3-c]pyridine-5-carbonyl]-6-(oxan-4-yl)-1H-indol-3-yl}cyclopropyl)-2,5-dihydro-1,2,4-oxadiazol-5-one] returned an EC50 of 33 pM.

`[2H]C([2H])([2H])Nc1cc(-n2ccn(-c3c4c(nn3-c3ccc(F)c(C5CC5)c3)CCN(C(=O)c3cc5cc(C6CCOCC6)ccn5c3C3(c5noc(=O)[nH]5)CC3)[C@H]4C)c2=O)ccc1P(C)(C)=O` [Compound 6] displayed an EC50 of 89 pM.

For the compound `CCP(=O)(CC)c1ccc(-n2ccn(-c3c4c(nn3-c3cc(C)c(F)c(C)c3)CCN(C(=O)c3oc5cc(C6CCOCC6)ccc5c3C3(c5noc(=O)[nH]5)CC3)[C@H]4C)c2=O)cc1NC` [Compound 19, 3-(1-{2-[(4S)-3-{3-[4-(diethylphosphoryl)-3-(methylamino)phenyl]-2-oxo-2,3-dihydro-1H-imidazol-1-yl}-2-(4-fluoro-3,5-dimethylphenyl)-4-methyl-2H,4H,5H,6H,7H-pyrazolo[4,3-c]pyridine-5-carbonyl]-6-(oxan-4-yl)-1-benzofuran-3-yl}cyclopropyl)-4,5-dihydro-1,2,4-oxadiazol-5-one], the EC50 is 49 pM.

Regarding `CCP(=O)(CC)c1ccc(-n2ccn(-c3c4c(nn3-c3cc(C)c(F)c(C)c3)CCN(C(=O)c3sc5cc(C6CCOCC6)ccc5c3C3(c5noc(=O)[nH]5)CC3)[C@H]4C)c2=O)cc1NC` [Compound 18, 3-(1-{2-[(4S)-3-{3-[4-(diethylphosphoryl)-3-(methylamino)phenyl]-2-oxo-2,3-dihydro-1H-imidazol-1-yl}-2-(4-fluoro-3,5-dimethylphenyl)-4-methyl-2H,4H,5H,6H,7H-pyrazolo[4,3-c]pyridine-5-carbonyl]-6-(oxan-4-yl)-1-benzothiophen-3-yl}cyclopropyl)-4,5-dihydro-1,2,4-oxadiazol-5-one], the EC50 was found to be 61 pM.

`CNc1cc(-n2ccn(-c3c4c(nn3-c3ccc(F)c(C5CC5)c3)CCN(C(=O)c3cc5cc(C6CCOCC6)ccn5c3C3(c5noc(=O)[nH]5)CC3)[C@H]4C)c2=O)ccc1P(C)(C)=O` [Compound 4] came in with an EC50 of 85 pM.

As for `CCP(=O)(CC)c1ccc(-n2ccn(-c3c4c(nn3-c3cc(C)c(F)c(C)c3)CCN(C(=O)c3cn5cc(C6CCOCC6)ccc5c3C3(c5noc(=O)[nH]5)CC3)[C@H]4C)c2=O)cc1NC` [Compound 20, 3-(1-{2-[(4S)-3-{3-[4-(diethylphosphoryl)-3-(methylamino)phenyl]-2-oxo-2,3-dihydro-1H-imidazol-1-yl}-2-(4-fluoro-3,5-dimethylphenyl)-4-methyl-2H,4H,5H,6H,7H-pyrazolo[4,3-c]pyridine-5-carbonyl]-6-(oxan-4-yl)indolizin-1-yl}cyclopropyl)-4,5-dihydro-1,2,4-oxadiazol-5-one], the EC50 worked out at 30 pM.

`CCP(=O)(CC)c1ccc(-n2ccn(-c3c4c(nn3-c3cc(C)c(F)c(C)c3)CCN(C(=O)c3cc5cc(C6CCOCC6)ccn5c3C3(c5noc(=O)[nH]5)CC3)[C@H]4C)c2=O)cc1NC` [Compound 21, 3-(1-{2-[(4S)-3-{3-[4-(diethylphosphoryl)-3-(methylamino)phenyl]-2-oxo-2,3-dihydro-1H-imidazol-1-yl}-2-(4-fluoro-3,5-dimethylphenyl)-4-methyl-2H,4H,5H,6H,7H-pyrazolo[4,3-c]pyridine-5-carbonyl]-7-(oxan-4-yl)indolizin-3-yl}cyclopropyl)-4,5-dihydro-1,2,4-oxadiazol-5-one]: the EC50 was 20 pM.

`CCP(=O)(CC)c1ccc(-n2ccn(-c3c4c(nn3-c3cc(C)c(F)c(C)c3)CCN(C(=O)c3nn5cc(C6CCOCC6)cnc5c3C3(c5noc(=O)[nH]5)CC3)[C@H]4C)c2=O)cc1NC` [Compound 24] registered an EC50 of 180 pM.

Compound `CCP(=O)(CC)c1ccc(-n2ccn(-c3c4c(nn3-c3ccc(F)c(C5CC5)c3)CCN(C(=O)c3cc5cc(C6CCOCC6)ccn5c3C3(c5noc(=O)[nH]5)CC3)[C@H]4C)c2=O)cc1NC` [Compound 5] displayed an EC50 of 110 pM.

Values taken from patent US20250188103A1, “HETEROCYCLIC GLP-1 AGONISTS” (Gasherbrum Bio, Inc., priority 2022, published 2025).
